Data taken from US5254571A, “Chemical compounds” (Smith Kline & French Laboratories Ltd., priority 1988, dated 1993).

Tests used:
[1] = test system: hindquarter blood flow / vascular resistance; assay: Vasodilatation in vivo: hindquarter blood flow in anaesthetised rats; design: species or system rat (male Wistar); conditions: Rattus norvegicus, iv, bolus i.v., from dose response curves, read-out: EDHQ50 (dose required to produce a 50% increase in hindquarter blood flow)
Experimental: Male Wistar rats (300 g) were anaesthetised with a sodium 5-ethyl-5-(1-methylpropyl)-2-thiobarbiturate/sodium pentobarbitone mixture i.p. (62.5 and 22.5 mg/kg respectively). The trachea was cannulated and the rats breathed spontaneously air enriched with O2 (5 ml/min). Blood pressure was recorded from a carotid artery and a jugular vein was cannulated for the administration of compounds. The temperature of the animal was maintained at 37° C. by the use of an electric blanket. […] The perfusion circuit was primed with 5% bovine serum albumin dissolved in 0.9% sodium chloride solution, pH adjusted to 7.4. Initially the pump rate was set between 10 and 15 ml/min to match the hind quarter perfusion pressure to that of the systemic circulation. Once set, the pressure remained unaltered for the rest of the experiment. A change in the speed of the pump (equivalent to hindquarter blood flow) was used to assess the changes in hindquarter vascular resistance.
All compounds were administered as a bolus i.v. and from the dose response curves the dose required to produce a 50% increase in hindquarter blood flow (EDHQ50) was determined in μmoles/kg.

[2] = target: calmodulin insensitive cyclic GMP phosphodiesterase (Homo sapiens, UniProt O76074); assay: Phosphodiesterase activity: inhibition of calmodulin insensitive cyclic GMP phosphodiesterase; type: biochemical; conditions: procedure described in European Patent Application No. 293063; range given for the listed Examples together; read-out: IC50 (concentration of inhibitor required for 50% inhibition of enzyme activity)
Experimental: The activity of the compounds of the present invention as inhibitors of a calmodulin insensitive cyclic GMP phosphodiesterase was measured using the procedure described in European Patent Application No. 293063. […] The compounds of the present invention have the advantage that they are selective in not inhibiting cyclic AMP phosphodiesterase (type III).

[3] = test system: U46619-induced bronchoconstriction; assay: Bronchodilatation in vivo: inhibition of U46619-induced bronchoconstriction in anaesthetised guinea-pigs; design: species or system guinea-pig (male, Dunkin Hartley); conditions: Cavia porcellus, iv, U46619 infused i.v. 2.5 nmol/min, compound i.v. bolus, peak inhibition, read-out: BD50 (dose required to reduce the U46619-induced bronchoconstriction by 50%)
Experimental: Male guinea-pigs of the Dunkin Hartley strain (500-600 g) were anaesthetised with Sagatal (pentobarbital sodium) (60 mg/kg). Airway resistance was measured using a modification of the classical Konzett-Rossler technique (J. Pharm. Methods, 13, 309-315, 1985). U46619 (9,11-methanoepoxy-pGH2) was infused i.v. at a rate of 2.5 nmol/min, this produced a steady state of bronchoconstriction (approximately 120% increase from basal airway resistance). The compound under test was administered by i.v. bolus injection, and the subsequent peak inhibition of bronchoconstriction recorded.
The dose of compound required to reduce the U46619-induced bronchoconstriction by 50% is given as the BD50.

[4] = test system: ovalbumen-induced bronchoconstrictor response; assay: Anti-allergic activity: ovalbumen-induced bronchoconstriction in sensitised guinea-pigs; type: in vivo, guinea-pig (male, Duncan Hartley); conditions: 11 μmol/kg i.v. bolus; 30 minutes following drug administration; ovalbumen 1 mg/kg i.v. challenge; n = 6
Experimental: Male Duncan Hartley guinea-pigs (250-300 g) were sensitised to ovalbumen by i.p. injection of 2 ml of 50 mg.ml^-1 i.p. and 0.2 ml s.c. Three weeks later they were anaesthetised with 60 mg.kg^-1 sodium pentabarbitone. The trachea was cannulated and the animal respired at a rate of 40 breaths per minute and at an initial tracheal inflation pressure of 16 mmHg. Tracheal inflation pressure was measured by a transducer connected to a side arm of the respiration circuit The carotid artery was cannulated for the measurement of blood pressure and the signal was used to trigger an instantaneous rate meter. A jugular vein was cannulated for the administration of drug and allergen. After surgery the animals were allowed to stabilise and the drug was administered i.v. as a bolus. Following this, ovalbumen 1 mg.kg^-1 was injected i.v. as the antigen challenge either 2, 15 or 30 minutes following drug treatment and the peak bronchoconstrictor response recorded. For the control group ovalbumen only was given. One ovalbumen challenge per guinea-pig was used and n = 6 for each time point. The percentage increase in tracheal inflation pressure was calculated.

| Compound | IC50 [2] | ED (50% increase) [1] | ED50 [3] | inhibition of the control bronchoconstrictor response [4] |
| --- | --- | --- | --- | --- |
| CCCOc1ccccc1-c1ccc(C#N)c(=O)[nH]1 [Example 1, 3-Cyano-6-(2-propoxyphenyl)-2(1H)-pyridinone] | 1.7 to 30 µM | 11.5 µmol/kg | 10 µmol/kg |  |
| CCCOc1ccccc1-c1ccc(C(N)=O)c(=O)[nH]1 [Example 2, 6-(2-Propoxyphenyl)-1,2-dihydro-2-oxopyridine-3-carboxamide] | 1.7 to 30 µM | 14 µmol/kg | 1.1 µmol/kg | 44% |
| CCCOc1ccccc1-c1ccc(C(=O)O)c(=O)[nH]1 [Example 3, 6-(2-Propoxyphenyl)-1,2-dihydro-2-oxopyridine-3-carboxylic acid] |  |  | 10.6 µmol/kg |  |
| CCCOc1ccccc1-c1ccc([N+](=O)[O-])c(=O)[nH]1 [Example 7, 3-Nitro-6-(2-propoxyphenyl)-2(1H)-pyridinone] | 1.7 to 30 µM |  | 7.7 µmol/kg |  |
| CCCOc1ccccc1-c1cc(C)c(C#N)c(=O)[nH]1 [Example 11, 3-Cyano-4-methyl-6-(2-propoxyphenyl)-2(1H)-pyridinone] | 1.7 to 30 µM |  | 2.3 µmol/kg |  |

More lines, main results first:

| IC50 [2] | Compound | ED (50% increase) [1] | ED50 [3] | inhibition of the control bronchoconstrictor response [4] |
| --- | --- | --- | --- | --- |
| 1.7 to 30 µM | CCCOc1ccccc1-c1ccc(C(=O)OC)c(=O)[nH]1 [Example 4, Methyl 6-(2-propoxyphenyl)-1,2-dihydro-2-oxopyridine-3-carboxylate] |  |  |  |
| 1.7 to 30 µM | CCCOc1ccccc1-c1cccc(=O)[nH]1 [Example 6, 6-(2-Propoxyphenyl)-2(1H)-pyridinone] |  |  |  |
| 1.7 to 30 µM | CCOc1ccccc1-c1ccc(C#N)c(=O)[nH]1 [Example 9, 3-Cyano-6-(2-ethoxyphenyl)-2(1H)-pyridinone] |  |  |  |
| 1.7 to 30 µM | CCCOc1ccccc1-c1[nH]c(=O)c(C#N)cc1C [Example 12, 3-Cyano-5-methyl-6-(2-propoxyphenyl)-2(1H)-pyridinone] |  |  |  |
| 1.7 to 30 µM | CCCOc1ccccc1-c1ccc(C#N)c(=S)[nH]1 [Example 14, 3-Cyano-6-(2-propoxyphenyl)-2(1H)-pyridinethione] |  |  |  |
